Measured values as given in patent US20050176813A1, “Novel chalcone derivatives and uses thereof” (priority 2002, published 2005).
Where two headings read alike, the source gives them in different places.

What was measured:
[1] = target: T1, Kv1.3 (Homo sapiens, UniProt P22001); assay: Kv1.3 channel block, estimated Kd (Table 1); format: binding; details: for Block phasic or not: Kv1.3
[2] = target: Kv1.5 (Homo sapiens, UniProt P22460); assay: Kv1.5 channel block, estimated Kd (Table 1); format: binding
Sequence of Kv1.5 (P22460 whole entry): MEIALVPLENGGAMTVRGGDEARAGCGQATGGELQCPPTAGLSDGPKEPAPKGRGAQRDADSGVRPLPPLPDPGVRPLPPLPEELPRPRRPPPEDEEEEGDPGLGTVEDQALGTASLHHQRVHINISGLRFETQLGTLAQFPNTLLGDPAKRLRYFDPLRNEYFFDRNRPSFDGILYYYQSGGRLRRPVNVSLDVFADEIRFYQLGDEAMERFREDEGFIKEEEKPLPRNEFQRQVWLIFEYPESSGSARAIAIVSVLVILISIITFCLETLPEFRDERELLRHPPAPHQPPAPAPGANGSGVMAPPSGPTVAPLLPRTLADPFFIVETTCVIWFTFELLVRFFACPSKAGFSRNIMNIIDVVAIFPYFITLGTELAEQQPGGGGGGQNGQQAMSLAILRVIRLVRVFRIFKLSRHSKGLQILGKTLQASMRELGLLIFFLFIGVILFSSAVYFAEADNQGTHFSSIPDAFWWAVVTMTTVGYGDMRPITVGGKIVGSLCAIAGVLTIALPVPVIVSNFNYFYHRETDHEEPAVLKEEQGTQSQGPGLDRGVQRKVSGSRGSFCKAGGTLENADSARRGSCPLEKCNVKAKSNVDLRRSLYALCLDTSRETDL

[3] = system: human peripheral blood lymphocytes; assay: Proliferation test, [3H]-thymidine incorporation assay, anti-CD3 stimulated; format: cell-based; details: for Antiproliferative potency compared with Example 1: FIG. 1; for EC50: Homo sapiens, Lymphocyte, anti-CD3 stimulation, 48 h, read-out: EC50, suppression of proliferation of human peripheral blood lymphocytes
Protocol: Proliferation Test [^3H]-Thymidine Incorporation Assay
Resting peripheral blood mononuclear cells from healthy volunteers were seeded at 2×10^5 cells per well in medium (RPMI 1640 supplemented 10% fetal calf serum, 2 mM glutamine, 1 mM sodium pyruvate, 1% nonessential amino acids, 100 units/ml penicillin, 100 μg/ml streptomycin and 50 μM β-mercaptoethanol) in flat-bottom 96 well plates (final volume 200 μl). Cells pre-incubated with drug (60 min), were stimulated with 5 ng/ml anti-CD3 Ab) for 48 h. [^3H]-Thymidine (1 μCi per well) was added for the last 6 h. Cells were harvested onto glass fibre filters and radioactivity measured in a scintillation counter. All experiments were done in triplicate. Results are reported as normalised for maximum [^3H]-thymidine incorporation for controls.

[4] = system: MEL cells; assay: Flow cytometric measurement of cell viability (PI uptake), MEL cells; format: cell-based; details: 48 h
Protocol: (§1) Flow Cytometric Measurement of Cell Viability
(§2) Jurkat E6-1 and MEL were seeded at 5×10^5 cells/ml in twelve-well plates. Drug (100 nM, 1 μM, 2.5 μM and 10 μM) was added in a final DMSO concentration of 0.1%. After 48 h of incubation, cells were harvested by sucking them off the plates. Cells were centrifuged, resuspended in 0.5 ml PBS containing 1 μg/ml propidium iodide (PI), and red fluorescence measured on a FACScan flow cytometer (Becton Dickinson) after 20 min (10^4 cells of every sample being analyzed). The percentage of dead cells was determined by their PI uptake. Incubation with 20% DMSO served as a control for setting the gates of the flow cytometer for dead cells.

[5] = system: Jurkat E6-1; assay: Flow cytometric measurement of cell viability (PI uptake), Jurkat T-cells; format: cell-based; details: 48 h
Protocol: as §1, §2

[6] = system: mice; assay: Toxicity on intravenous injection into mice; format: in vivo; details: injected intravenously, dose not stated
[7] = Cytotoxicity in vitro (remark in Table 1, summary of Table 2); format: cell-based; details: for Cytotoxicity in-vitro (summary of Table 2): MEL and Jurkat cells; for Cytotoxicity (remark in Table 1): cells not given
Protocol: as §2

[8] = target: T1, Kv1.3; details: cited from earlier work
[9] = target: Kv1.7 (Homo sapiens, UniProt Q96RP8); assay: Kv1.7 channel block, estimated Kd (Table 1); format: binding; details: Kv1.7, time-independent; read-out: Est. Kd
Sequence of Kv1.7 (Q96RP8 whole entry): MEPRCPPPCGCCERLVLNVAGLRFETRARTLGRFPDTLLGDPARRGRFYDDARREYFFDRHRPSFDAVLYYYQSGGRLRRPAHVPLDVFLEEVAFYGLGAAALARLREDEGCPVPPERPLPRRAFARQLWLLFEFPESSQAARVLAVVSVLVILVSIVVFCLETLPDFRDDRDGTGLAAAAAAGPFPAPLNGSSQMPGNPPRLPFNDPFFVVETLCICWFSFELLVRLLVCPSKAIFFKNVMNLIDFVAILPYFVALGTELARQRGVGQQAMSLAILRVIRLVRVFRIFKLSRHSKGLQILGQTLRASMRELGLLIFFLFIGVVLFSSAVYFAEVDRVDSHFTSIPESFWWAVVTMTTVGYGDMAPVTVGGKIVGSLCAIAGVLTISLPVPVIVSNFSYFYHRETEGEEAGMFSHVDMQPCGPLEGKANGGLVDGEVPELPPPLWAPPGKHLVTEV

[10] = target: Kv1.1 (Homo sapiens, UniProt Q09470); assay: Kv1.1 channel block, estimated Kd (Table 1); format: binding
Sequence of Kv1.1 (Q09470 whole entry): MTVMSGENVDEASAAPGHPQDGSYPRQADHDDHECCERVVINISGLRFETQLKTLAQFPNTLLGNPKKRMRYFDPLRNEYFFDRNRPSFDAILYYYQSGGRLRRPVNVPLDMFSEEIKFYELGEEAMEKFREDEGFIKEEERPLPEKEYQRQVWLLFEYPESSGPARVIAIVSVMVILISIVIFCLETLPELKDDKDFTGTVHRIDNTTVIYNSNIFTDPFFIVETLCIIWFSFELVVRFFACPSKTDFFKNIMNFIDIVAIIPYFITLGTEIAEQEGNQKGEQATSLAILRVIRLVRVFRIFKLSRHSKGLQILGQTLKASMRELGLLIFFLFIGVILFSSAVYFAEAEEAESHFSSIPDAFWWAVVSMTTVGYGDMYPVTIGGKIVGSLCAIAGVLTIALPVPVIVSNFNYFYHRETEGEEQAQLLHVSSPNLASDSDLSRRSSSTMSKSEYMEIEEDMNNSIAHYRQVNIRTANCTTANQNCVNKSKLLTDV

[11] = Kv1.3, area, read-out: Est. Kd, Kd area
[12] = Kv1.3, end, read-out: Est. Kd, Kd end
[13] = Kv1.3, peak, read-out: Est. Kd, Kd peak
[14] = Kv1.5, end, read-out: Est. Kd, Kd end
[15] = Kv1.5, peak, read-out: Est. Kd, Kd peak

T1 sequence (P22001 whole entry): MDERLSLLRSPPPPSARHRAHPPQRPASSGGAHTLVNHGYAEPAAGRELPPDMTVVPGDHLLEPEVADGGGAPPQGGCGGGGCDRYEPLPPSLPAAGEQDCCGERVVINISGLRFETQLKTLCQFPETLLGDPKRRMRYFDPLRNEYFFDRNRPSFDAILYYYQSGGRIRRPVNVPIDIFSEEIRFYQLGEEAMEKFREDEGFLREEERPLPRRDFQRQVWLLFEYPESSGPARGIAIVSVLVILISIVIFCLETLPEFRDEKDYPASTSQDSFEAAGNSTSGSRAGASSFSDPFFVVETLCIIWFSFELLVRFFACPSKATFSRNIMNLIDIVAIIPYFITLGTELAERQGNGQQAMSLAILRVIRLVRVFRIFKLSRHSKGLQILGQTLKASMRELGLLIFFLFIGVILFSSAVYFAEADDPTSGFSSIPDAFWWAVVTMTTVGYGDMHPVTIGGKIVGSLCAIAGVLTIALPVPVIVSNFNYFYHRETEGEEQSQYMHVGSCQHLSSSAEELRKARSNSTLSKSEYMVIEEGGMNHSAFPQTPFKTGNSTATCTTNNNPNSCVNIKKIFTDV

| Structure (SMILES) | Kd [1, 12] [µM] | Kd [1, 13] [µM] | melting point [°C] | further results |
| --- | --- | --- | --- | --- |
| COc1cccc(/C=C/C(=O)c2c(O)c(OC)c3occc3c2OC)c1 (single isomer, unassigned) [Example 24] | 0.25 to 0.3 | 0.9 to 1.1 | – | Kd [1, 11]: 0.8 µM; Kd [2, 14]: 6 µM; Kd [2, 15]: 36 µM; Antiproliferative potency compared with Example 1 [3]: even more potently antiproliferative; EC50 [3]: 1 µM; percentage of dead cells (PI uptake) ([4]; 100 nM): 3.53%; percentage of dead cells (PI uptake) ([4]; 1 μM): 3.73%; percentage of dead cells (PI uptake) ([4]; 2.5 μM): 5.26%; percentage of dead cells (PI uptake) ([4]; 10 μM): 3.00%; percentage of dead cells (PI uptake) ([5]; 100 nM): 2.41%; percentage of dead cells (PI uptake) ([5]; 1 μM): 2.81%; percentage of dead cells (PI uptake) ([5]; 2.5 μM): 2.31%; percentage of dead cells (PI uptake) ([5]; 10 μM): 9.8%; Toxicity in mice [6]: non-toxic; Cytotoxicity in-vitro (summary of Table 2) [7]: non-cytotoxic |
| COc1c2occc2cc2ccc(=O)oc12 [8-Methoxypsoralen] | – | – | – | Blocking activity on the Kv1.3 channel ([8]; background): blocking activity |
| CCCOc1ccc(/C=C/C(=O)c2c(O)c(OC)c3occc3c2OC)cc1 [Example 4] | – | 45 | 74 to 75 | Block phasic or not [1]: not phasic |
| COc1c(C(=O)/C=C/c2ccc(-c3ccccc3)cc2)c(O)c(OC)c2occc12 [Example 5] | – | 30 | 122 to 124 | Block phasic or not [1]: not phasic |
| COc1c(C(=O)/C=C/c2ccc(NC(C)=O)cc2)c(O)c(OC)c2occc12 [Example 6] | – | 35 | 180 to 181 | Block phasic or not [1]: not phasic |
| COc1c(C(=O)/C=C/c2ccccc2Cl)c(O)c(OC)c2occc12 [Example 7] | – | 12 | 160 to 161 | Block phasic or not [1]: not phasic |
| COc1c(C(=O)/C=C/c2cccc(C#N)c2)c(O)c(OC)c2occc12 [Example 10] | – | 20 | 182 to 183 | Block phasic or not [1]: not phasic |
| COc1c(C(=O)/C=C/c2ccc(C#N)cc2)c(O)c(OC)c2occc12 [Example 11] | – | 12 | 196 to 198 | Block phasic or not [1]: not phasic |
| COc1c(C(=O)/C=C/c2cccc(F)c2)c(O)c(OC)c2occc12 [Example 16] | 4 | 35 | 121 to 123 | – |
| COc1c(C(=O)/C=C/c2cccc(O)c2)c(O)c(OC)c2occc12 [Example 18] | 0.25 | 5 | – | Kd [1, 11]: 0.7 µM; Kd [9]: 50 µM; Kd ([10]; Kv1.1, area, read-out: Est. Kd, Kd area): 1.7 µM; Kd ([10]; Kv1.1, end, read-out: Est. Kd, Kd end): 1 µM; Kd ([10]; Kv1.1, peak, read-out: Est. Kd, Kd peak): 15 µM; Kd [2, 14]: 10 µM; Kd [2, 15]: 16 µM; Antiproliferative potency compared with Example 1 [3]: even more potently antiproliferative; EC50 [3]: 0.5 µM; percentage of dead cells (PI uptake) ([4]; 100 nM): 6.89%; percentage of dead cells (PI uptake) ([4]; 1 μM): 3.60%; percentage of dead cells (PI uptake) ([4]; 2.5 μM): 6.98%; percentage of dead cells (PI uptake) ([4]; 10 μM): 4.41%; percentage of dead cells (PI uptake) ([5]; 100 nM): 2.57%; percentage of dead cells (PI uptake) ([5]; 1 μM): 2.22%; percentage of dead cells (PI uptake) ([5]; 2.5 μM): 2.59%; percentage of dead cells (PI uptake) ([5]; 10 μM): 4.70%; Toxicity in mice [6]: non-toxic; Cytotoxicity in-vitro (summary of Table 2) [7]: non-cytotoxic |
| COc1c(C(=O)/C=C/c2cccc(C)c2)c(O)c(OC)c2occc12 [Example 22] | 0.3 | 1.5 | 97 to 98 | – |
| COc1c(C(=O)/C=C/c2ccc(C)cc2)c(O)c(OC)c2occc12 [Example 23] | 0.1 | 1.5 | – | EC50 [3]: 1.5 µM |
| COc1ccccc1/C=C/C(=O)c1c(O)c(OC)c2occc2c1OC [Example 25] | 1 | 5 | 117 to 118 | – |
| COc1c(C(=O)/C=C/c2ccc3c(c2)OCO3)c(O)c(OC)c2occc12 [Example 26] | 1.5 | 9 | 139 to 140 | – |
| COc1c(C(=O)/C=C/c2ccccc2[N+](=O)[O-])c(O)c(OC)c2occc12 [Example 27] | 5 | 15 | 131 to 132 | – |
| COc1c(C(=O)/C=C/c2cccc([N+](=O)[O-])c2)c(O)c(OC)c2occc12 [Example 28] | – | – | 97 to 98 | block ([1]; Kv1.3, at 5 μM): 5-10% block at 5 μM |
| COc1c(C(=O)/C=C/c2c(F)c(F)c(F)c(F)c2F)c(O)c(OC)c2occc12 [Example 30] | 3.5 | 5 | 112 to 114 | – |

| Structure (SMILES) | Kd [1, 12] [µM] | Kd [1, 13] [µM] | melting point [°C] | further results |
| --- | --- | --- | --- | --- |
| COc1c(C(=O)/C=C/c2ccccc2C(F)(F)F)c(O)c(OC)c2occc12 [Example 31] | – | 40 | 150 to 151 | Block phasic or not [1]: not phasic |
| COc1c(C(=O)/C=C/c2cccc(Oc3ccc(Cl)cc3)c2)c(O)c(OC)c2occc12 [Example 35] | – | – | 107 to 108 | Effect on Kv1.3 ([1]; at 5 μM): no effect at 5 μM Not tested against other channels |
| COc1c(C(=O)/C=C/c2ccc(CO)o2)c(O)c(OC)c2occc12 [Example 46] | – | – | 120 to 121 | Effect on Kv1.3 ([1]; at 20 μM): no effect at 20 μM Not tested against other channels |
| COc1c(C(=O)/C=C/c2c[nH]c3ccccc23)c(O)c(OC)c2occc12 [Example 47] | – | – | 138 to 140 | Effect on Kv1.3 ([1]; at 5 μM): no effect at 5 μM Not tested against other channels |
| COc1c(C(=O)/C=C/c2ccncc2)c(O)c(OC)c2occc12 [Example 49] | – | 20 | – | Block phasic or not [1]: not phasic |
| COc1c(C(=O)/C=C/c2cccc(C)n2)c(O)c(OC)c2occc12 [Example 50] | – | 12 | 86 to 87 | Block phasic or not [1]: not phasic |
| COc1c(C(=O)/C=C/c2ccc[nH]2)c(O)c(OC)c2occc12 [Example 51] | 9 | 30 | – | – |
| COc1c(C(=O)/C=C/c2cccn2C)c(O)c(OC)c2occc12 [Example 52] | 15 | 40 | 87 to 88 | – |
| COc1c(C(=O)/C=C/c2cccs2)c(O)c(OC)c2occc12 [Example 53] | 0.3 | 1.75 | – | Cytotoxicity (remark in Table 1) [7]: Cytotoxic Mp 129 Red needles |
| COc1c(C(=O)/C=C/c2cc(Br)cs2)c(O)c(OC)c2occc12 [Example 54] | 0.25 | 4 | – | Cytotoxicity (remark in Table 1) [7]: Cytotoxic Mp 139 Brown needles |
| COc1c(C(=O)/C=C/c2ccc(C)s2)c(O)c(OC)c2occc12 [Example 55] | 0.5 | 3 | – | Cytotoxicity (remark in Table 1) [7]: Cytotoxic Mp 103 Orange prisms |
| COc1c(C(=O)/C=C/c2sccc2C)c(O)c(OC)c2occc12 [Example 56] | 6 | 25 | – | – |
| COc1c(C(=O)/C=C/c2ccc([N+](=O)[O-])s2)c(O)c(OC)c2occc12 [Example 57] | – | – | – | Effect on Kv1.3 ([1]; at 10 μM): No effect at 10 μM |
| COc1c(C(=O)/C=C/c2ccc3ccccc3n2)c(O)c(OC)c2occc12 [Example 58] | – | – | – | Effect on Kv1.3 ([1]; at 5 μM): No effect at 5 μM |
| COc1c(C(=O)/C=C/c2ccccc2)c(OCc2ccccc2)c(OC)c2occc12 [Example 60] | 0.2 | 10 | – | – |
| COc1c(C(C)=O)c(O)c(OC)c2occc12 [khellinone] | – | – | – | Blocking activity on the Kv1.3 channel [8]: blocking activity |
